Columns and labels:
in vitro = conditions: human, Caco-2, pH 7.4
p97 = p97 (Homo sapiens, UniProt P55072); test: P97 ATPase biochemical assay (ADP Glo); conditions: 20 nM p97, 20 μM ATP, 37° C. 15 minutes
Protocol: The ATPase assay is performed according the following protocol: Purified enzyme (20 nM p97), substrate (20 μM ATP) and a dose titration of compounds are mixed in buffer (50 mM TRIS pH 7.5, 20 mM MgCl2, 0.02% TX-100, 1 mM DTT, 0.2% (v/v) glycerol) and incubated at 37° C. for 15 minutes. The reaction is terminated and the level of product generated is measured using the ADP Glo Assay Kit (Promega, Madison Wis.). Plotting product generated versus compound concentration and using a four-parameter fit model generates an IC50 value for each compounds.
The p97 assay is an initial screening assay used to determine inhibitory activity of the fused pyrimidine compounds of the invention against the p97 complex. As discussed above, inhibition of activity of the p97 proteosome complex can enable apoptosis and cause elimination of neoplastic cells (cancer cells). The method follows that of Christianson in Nat.
Assay Buffer is a mixture of 50 mM TRIS pH 7.5, 20 mM MgCl2, 0.02% TX-100, 1 mM DTT and 0.2% (v/v) Glycerol. […] The identification kit is an ADP glo kit (Promega): stop buffer, detection reagent.
0.5 μL compound serial diluted in DMSO (Final Conc. 10%)
2 μL ATP (Final Conc.=20 uM, diluted in assay buffer)
2.5 μL p97 (Final Conc.=20 nM, diluted in assay buffer)
Incubate at 37 degC for 15 min.
Add 5 μL of stop buffer, incubate at RT for 40 min.
Add 10 μL of detection reagent, incubate at RT for 30 min.
Read luminescence on Envision plate reader.
Plot normalized luminescence data against log-transformed concentration values and fit to a sigmoidal curve to determine IC50 values (done in Collaborative Drug Discovery software).

K48-Ub, A549 cells = test: A549 K48 cell intensity (immunofluorescence, high content imaging); type: cell-based; conditions: Homo sapiens, 6 hr compound incubation
Protocol: Image-analysis is used to generate quantitative data from these assays that can be fit to a four-parameter sigmoid curve to derive IC50 values. Substrates of the ubiquitin-proteasome system, such as p53, are monitored after tumor cell lines are incubated with compounds for several hours. Accumulation of these proteins indicates an inhibition of proteasome-mediated degradation. Accumulation of lysine-48 chain linkage of poly-ubiquitin is also monitored by immunofluorescence as an indicator of ubiquitin-proteasome system inhibition. Both LC3 and SQSTM1 are mediators of autophagy. The localization and amounts of these proteins are monitored by immunofluorescence and report on the activity and inhibition of autophagy in response to p97 inhibition.
Day 1, Cell Plating to Establish Colonies of Cancer Cells • Cell Plating: • Seed cells ˜16 hrs prior to compound treatment • Plate 25 μL of A549 cells in every well of 384-well plate using multidrop. • Two (2) black plates for IF at 2500 cells/well • Let plate sit at room temp for 10-15 minutes prior to putting in incubator to allow cells to stick in middle of plate. • One (1) white plate for viability at 500 cells/well.

Chain of p97 (P55072 whole entry): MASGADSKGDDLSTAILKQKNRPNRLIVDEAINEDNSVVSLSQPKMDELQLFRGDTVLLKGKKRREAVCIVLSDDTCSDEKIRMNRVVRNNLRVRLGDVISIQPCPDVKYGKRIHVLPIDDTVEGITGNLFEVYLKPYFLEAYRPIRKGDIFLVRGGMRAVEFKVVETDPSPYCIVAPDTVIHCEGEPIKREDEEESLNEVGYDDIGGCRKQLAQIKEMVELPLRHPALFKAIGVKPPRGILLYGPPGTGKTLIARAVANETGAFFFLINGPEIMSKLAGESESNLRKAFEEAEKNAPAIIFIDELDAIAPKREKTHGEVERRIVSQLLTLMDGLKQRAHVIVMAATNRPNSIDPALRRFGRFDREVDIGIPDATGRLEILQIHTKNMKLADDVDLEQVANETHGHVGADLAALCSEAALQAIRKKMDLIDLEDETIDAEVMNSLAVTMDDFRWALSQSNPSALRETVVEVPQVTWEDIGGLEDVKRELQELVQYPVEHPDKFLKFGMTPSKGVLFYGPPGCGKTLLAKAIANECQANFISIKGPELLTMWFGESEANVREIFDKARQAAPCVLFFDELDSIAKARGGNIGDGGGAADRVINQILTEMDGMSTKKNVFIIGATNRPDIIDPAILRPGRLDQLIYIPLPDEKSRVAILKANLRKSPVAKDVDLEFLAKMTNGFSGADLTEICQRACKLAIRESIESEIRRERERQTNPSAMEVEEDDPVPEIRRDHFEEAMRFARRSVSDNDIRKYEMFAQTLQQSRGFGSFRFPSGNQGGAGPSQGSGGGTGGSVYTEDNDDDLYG

CC(C)NCC(O)COc1cccc2ccccc12 (stereo not shown) [Propranolol]
Peff A B, Range (Caco-2 cell monolayer; pH 7.4 Caco-2, A to B): 18.50-36.80 ×E−6 cm/sec
Peff B A, Range (Caco-2 cell monolayer; pH 7.4 Caco-2, B to A): 16.30-31.40 ×E−6 cm/sec
Papp A→B at 90 min, 100 μM (in vitro): 28.5 ×10⁻⁶ cm/s
Papp B→A at 90 min, 100 μM (in vitro): 20.9 ×10⁻⁶ cm/s

CC(C)c1cc2c(C(N)=O)cccc2n1-c1nc2c(c(NCc3ccccc3)n1)CCCC2 [compound 128, 1-[4-(benzylamino)-5,6,7,8-tetrahydroquinazolin-2-yl]-2-(propan-2-yl)-1H-indole-4-carboxamide]
IC50 (p97): < 0.1 µM
IC50 (K48-Ub, A549 cells): < 10 µM

NC(=O)c1cccc2c1cc(C1CC1)n2-c1nc2c(c(NCc3ccccc3)n1)CCCC2 [compound 130, 1-[4-(benzylamino)-5,6,7,8-tetrahydroquinazolin-2-yl]-2-cyclopropyl-1H-indole-4-carboxamide]
IC50 (p97): < 0.03 µM
IC50 (K48-Ub, A549 cells): < 10 µM

CNC(=O)c1cccc2c1cc(C)n2-c1nc2c(c(NCc3ccccc3)n1)CCCC2 [compound 132, 1-[4-(benzylamino)-5,6,7,8-tetrahydroquinazolin-2-yl]-N-methyl-2-methyl-1H-indole-4-carboxamide]
IC50 (p97): < 0.03 µM
IC50 (K48-Ub, A549 cells): < 10 µM

CCNC(=O)c1cccc2c1cc(C)n2-c1nc2c(c(NCc3ccccc3)n1)CCCC2 [compound 134, 1-[4-(benzylamino)-5,6,7,8-tetrahydroquinazolin-2-yl]-N-ethyl-2-methyl-1H-indole-4-carboxamide]
IC50 (p97): < 0.03 µM
IC50 (K48-Ub, A549 cells): < 10 µM

Cc1cc2c(C(N)=O)cccc2n1-c1nc2c(c(NCc3cccc(F)c3)n1)COCC2 [compound 136, 1-(4-{[(3-fluorophenyl)methyl]amino}-5H,7H,8H-pyrano[4,3-d]pyrimidin-2-yl)-2-methyl-1H-indole-4-carboxamide]
IC50 (p97): < 0.03 µM
IC50 (K48-Ub, A549 cells): < 10 µM

COCCOc1cc2c(C#N)cccc2n1-c1nc2c(c(NCc3ccccc3)n1)CCCC2 [compound 137, 1-[4-(benzylamino)-5,6,7,8-tetrahydroquinazolin-2-yl]-2-(2-methoxyethoxy)-1H-indole-4-carbonitrile]
IC50 (p97): < 0.03 µM
IC50 (K48-Ub, A549 cells): < 10 µM

Reference: patent US9475824B2, “Fused pyrimidines as inhibitors of p97 complex” (Cleave Biosciences, Inc., priority 2012, dated 2016)
